Measured values from PubChem BioAssay AID248 (DTP/NCI, 2004).
Values joined by “and” are separate entries in the source; they are usually repeats but may differ in a detail not shown here. Equal values may be shown once. Toxic doses and inconclusive results are not listed. No stated cut-off is given here; in the data, active means T/C of 150% or more; inactive means T/C below 125%.

Tested on: L1210 leukemia ip in BDF1 mice, survival T/C
Assay: NCI In Vivo Anticancer Drug Screen. Data for tumor model L1210 Leukemia (intraperitoneal) in B6D2F1 (BDF1) mice
Conditions: endpoint: mean survival time, higher = longer survival
Procedure, shortened: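 In this screen, tumor-bearing mice given compound are compared to those given vehicle, and their survival values are reported as a treated-to-control quotient.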

[1] = dose: 100.0 mg/kg/injection, schedule: Q01DX001 (ip), vehicle: carboxymethylcellulose (CMC)
[2] = dose: 200.0 mg/kg/injection, schedule: Q01DX001 (ip), vehicle: carboxymethylcellulose (CMC)
[3] = dose: 400.0 mg/kg/injection, schedule: Q01DX001 (ip), vehicle: carboxymethylcellulose (CMC)
[4] = dose: 100.0 mg/kg/injection, schedule: Q01DX009 (ip), vehicle: Klucel (hydroxypropylcellulose) (HPC)
[5] = dose: 200.0 mg/kg/injection, schedule: Q01DX009 (ip), vehicle: Klucel (hydroxypropylcellulose) (HPC)
[6] = dose: 400.0 mg/kg/injection, schedule: Q01DX009 (ip), vehicle: Klucel (hydroxypropylcellulose) (HPC)
[7] = dose: 100.0 mg/kg/injection, schedule: Q01DX009 (ip), vehicle: saline with Tween-80
[8] = dose: 100.0 mg/kg/injection, schedule: Q04DX003 (ip), vehicle: saline with Tween-80
[9] = dose: 200.0 mg/kg/injection, schedule: Q01DX009 (ip), vehicle: saline with Tween-80
[10] = dose: 200.0 mg/kg/injection, schedule: Q04DX003 (ip), vehicle: saline with Tween-80
[11] = dose: 400.0 mg/kg/injection, schedule: Q01DX009 (ip), vehicle: saline with Tween-80
[12] = dose: 400.0 mg/kg/injection, schedule: Q04DX003 (ip), vehicle: saline with Tween-80

Measured: T/C

CCCCCCC[CH2][Sn]([Cl])([Cl])[CH2]CCCCCCC
inactive: dose: 50.0 mg/kg/injection, schedule: Q01DX001 (ip), vehicle: carboxymethylcellulose (CMC) 96 % of control | [1] 96 % of control | [2] 96 % of control | [3] 96 % of control

NC(=O)Nc1cccc(C(F)(F)F)c1
inactive: dose: 75.0 mg/kg/injection, schedule: Q01DX001 (ip), vehicle: carboxymethylcellulose (CMC) 98 % of control | dose: 150.0 mg/kg/injection, schedule: Q01DX001 (ip), vehicle: carboxymethylcellulose (CMC) 102 % of control | dose: 300.0 mg/kg/injection, schedule: Q01DX001 (ip), vehicle: carboxymethylcellulose (CMC) 103 % of control

C[CH2][Ge]([CH2]C)[CH2]C.C[CH2][Ge]([CH2]C)[CH2]C.C[CH2][Ge][CH2]C
inactive: dose: 100.0 mg/kg/injection, schedule: Q04DX002 (ip), vehicle: saline with Tween-80 103 % of control | dose: 200.0 mg/kg/injection, schedule: Q04DX002 (ip), vehicle: saline with Tween-80 95 % of control
active: dose: 400.0 mg/kg/injection, schedule: Q04DX002 (ip), vehicle: saline with Tween-80 319 % of control

O=C(Cc1c[nH]c2ccccc12)N/N=C\c1c[nH]c2ccccc12
inactive: dose: 200.0 mg/kg/injection, schedule: Q01DX001 (ip), vehicle: saline 97 % of control | dose: 400.0 mg/kg/injection, schedule: Q01DX001 (ip), vehicle: saline 92 % of control

Cc1ccc(S(=O)(=O)n2cc[nH]c2=O)cc1
inactive: dose: 100.0 mg/kg/injection, schedule: Q01DX001 (ip), vehicle: Klucel (hydroxypropylcellulose) (HPC) 100 % of control | dose: 200.0 mg/kg/injection, schedule: Q01DX001 (ip), vehicle: Klucel (hydroxypropylcellulose) (HPC) 100 % of control | dose: 400.0 mg/kg/injection, schedule: Q01DX001 (ip), vehicle: Klucel (hydroxypropylcellulose) (HPC) 105 % of control

Cc1cc(Cl)ccc1NS(=O)(=O)c1ccccc1
inactive: [4] 107 % of control | dose: 100.0 mg/kg/injection, schedule: Q04DX003 (ip), vehicle: Klucel (hydroxypropylcellulose) (HPC) 98 % of control | [5] 98 % of control | dose: 200.0 mg/kg/injection, schedule: Q04DX003 (ip), vehicle: Klucel (hydroxypropylcellulose) (HPC) 103 % of control | [6] 96 % of control | dose: 400.0 mg/kg/injection, schedule: Q04DX003 (ip), vehicle: Klucel (hydroxypropylcellulose) (HPC) 97 % of control

O=C(N/N=C/C=C/c1ccccc1)c1ccccc1O
inactive: [4] 92 % of control | [5] 89 % of control | [6] 95 % of control

S=c1oc2cccc3c2n1CCC3
inactive: [7] 113 % of control | [8] 97 % of control | [9] 101 % of control | [10] 107 % of control | [11] 98 % of control | [12] 97 % of control

NC(=S)NNc1ccccn1
inactive: dose: 3.13 mg/kg/injection, schedule: Q01DX009 (ip), vehicle: saline 108 % of control | dose: 6.25 mg/kg/injection, schedule: Q01DX009 (ip), vehicle: saline 96 % of control | dose: 12.5 mg/kg/injection, schedule: Q01DX009 (ip), vehicle: saline 101 % of control | dose: 100.0 mg/kg/injection, schedule: Q04DX002 (ip), vehicle: saline 94 % of control

CN(C)c1nnc([N+](=O)[O-])s1
inactive: dose: 62.0 mg/kg/injection, schedule: Q04DX003 (ip), vehicle: Klucel (hydroxypropylcellulose) (HPC) 93 % of control | dose: 123.0 mg/kg/injection, schedule: Q04DX003 (ip), vehicle: Klucel (hydroxypropylcellulose) (HPC) 87 % of control

O=C1NC(=O)C(c2ccccn2)N1 (configuration not stated)
inactive: [7] 91 % of control | [9] 91 % of control | [11] 94 % of control

CC[C@@H]1C[C@H]2CC3c4[nH]c5ccc(OC)cc5c4CCN(C2)C31
inactive: dose: 25.0 mg/kg/injection, schedule: Q01DX001 (ip), vehicle: saline with Tween-80 96 % of control | dose: 50.0 mg/kg/injection, schedule: Q01DX001 (ip), vehicle: saline with Tween-80 96 % of control | dose: 100.0 mg/kg/injection, schedule: Q01DX001 (ip), vehicle: saline with Tween-80 93 % of control and 109 % of control

N/N=C(\c1ccccc1)c1ccccn1
inactive: dose: 55.0 mg/kg/injection, schedule: Q01DX Z (ip), vehicle: methylcellulose (MC) 103 % of control | dose: 83.0 mg/kg/injection, schedule: Q01DX Z (ip), vehicle: methylcellulose (MC) 97 % of control | dose: 125.0 mg/kg/injection, schedule: Q01DX Z (ip), vehicle: methylcellulose (MC) 90 % of control

O=C(O)c1ccc(O)cn1
inactive: [1] 93 % of control | [2] 95 % of control | [3] 95 % of control

CCCCCCCCCCCCCCCCN(C)S(=O)(=O)c1ccc(N2CCOCC2)c(N)c1
inactive: dose: 100.0 mg/kg/injection, schedule: Q04DX003 (ip), vehicle: gum acacia 88 % of control | dose: 200.0 mg/kg/injection, schedule: Q04DX003 (ip), vehicle: gum acacia 93 % of control | dose: 400.0 mg/kg/injection, schedule: Q04DX003 (ip), vehicle: gum acacia 86 % of control

CCOC(=O)c1ccc(NC(=O)C(Br)C(Br)C(=O)O)cc1 (configuration not stated)
inactive: [7] 94 % of control | [8] 101 % of control | [9] 94 % of control | [10] 100 % of control | [11] 97 % of control | [12] 101 % of control
